Structures are written as SMILES. A value given as a limit tells only on which side of the number the result lay.

Assay [1] deals with T1, human orexin-2 receptor (Homo sapiens, UniProt O43614).
T1 construct: expressed in transfected cells; host or cells: CHO (Chinese hamster ovary) cells, kept under G418 selection
T1 sequence (O43614 1-444): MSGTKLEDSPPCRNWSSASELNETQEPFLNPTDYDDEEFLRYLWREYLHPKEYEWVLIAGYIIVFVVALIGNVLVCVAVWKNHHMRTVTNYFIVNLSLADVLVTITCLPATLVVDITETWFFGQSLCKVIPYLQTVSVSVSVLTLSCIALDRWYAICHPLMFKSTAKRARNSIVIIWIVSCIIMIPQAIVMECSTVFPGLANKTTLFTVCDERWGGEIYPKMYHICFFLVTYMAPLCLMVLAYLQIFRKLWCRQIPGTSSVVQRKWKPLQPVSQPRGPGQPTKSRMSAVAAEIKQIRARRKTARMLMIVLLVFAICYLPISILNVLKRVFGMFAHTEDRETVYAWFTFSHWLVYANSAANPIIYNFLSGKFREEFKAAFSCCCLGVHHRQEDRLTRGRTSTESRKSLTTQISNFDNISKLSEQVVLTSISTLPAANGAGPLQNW
Briefly: Intracellular calcium measurement (FLIPR Tetra), orexin receptor antagonistic activity, OX2. The assay is classed as cell-based. To be noted: CHO cells expressing human orexin-2 receptor, 3 nM orexin-A, conditions B. How it is done:
(§1) The orexin receptor antagonistic activity of the compounds of formula (I) is determined in accordance with one of the following experimental methods.
(§2) Chinese hamster ovary (CHO) cells expressing the human orexin-1 receptor and the human orexin-2 receptor, respectively, are grown in culture medium (Ham F-12 with L-Glutamine) containing 300 μg/ml G418, 100 U/ml penicillin, 100 μg/ml streptomycin and 10% heat inactivated fetal calf serum (FCS). The cells are seeded at 20,000 cells/well into 384-well black clear bottom sterile plates (Greiner). The seeded plates are incubated overnight at 37° C. in 5% CO2.
(§3) Human orexin-A as an agonist is prepared as 1 mM stock solution in MeOH:water (1:1), diluted in HBSS containing 0.1% bovine serum albumin (BSA), NaHCO3: 0.375 g/l and 20 mM HEPES for use in the assay at a final concentration of 3 nM. Antagonists are prepared as 10 mM stock solution in DMSO, then diluted in 384-well plates, first in DMSO, then in HBSS containing 0.1% bovine serum albumin (BSA), NaHCO3: 0.375 g/l and 20 mM HEPES.
(§4) On the day of the assay, 50 μl of staining buffer (HBSS containing 1% FCS, 20 mM HEPES, NaHCO3: 0.375 g/l, 5 mM probenecid (Sigma) and 3 μM of the fluorescent calcium indicator fluo-4 AM (1 mM stock solution in DMSO, containing 10% pluronic) is added to each well.
(§5) The 384-well cell-plates are incubated for 50 min at 37° C. in 5% CO2 followed by equilibration at RT for 30-120 min before measurement.
(§6) Within the Fluorescent Imaging Plate Reader (FLIPR Tetra, Molecular Devices), antagonists are added to the plate in a volume of 10 μl/well, incubated for 10 min and finally 10 μl/well of agonist is added. Fluorescence is measured for each well at 1 second intervals, and the height of each fluorescence peak is compared to the height of the fluorescence peak induced by 3 nM orexin-A with vehicle in place of antagonist. For each antagonist, the IC50 value (the concentration of compound needed to inhibit 50% of the agonistic response) is determined and may be normalized using the obtained IC50 value of a on-plate reference compound (normalized values in Table 1 are indicated by an asterisk *). With the FLIPR Tetra, two different conditions (conditions A and conditions B) were used, differing in adjustment of pipetting speed and cell splitting regime. The calculated IC50 values of the compounds may fluctuate depending on the daily cellular assay performance. Fluctuations of this kind are known to those skilled in the art.
Background: Calcium flux is commonly read through the fluorescence of an indicator in the cells.

Assay [2] has as its target T2, human orexin-1 receptor (Homo sapiens, UniProt O43613).
T2 construct: expressed in transfected cells; host or cells: CHO (Chinese hamster ovary) cells, kept under G418 selection
T2 sequence (O43613 1-425): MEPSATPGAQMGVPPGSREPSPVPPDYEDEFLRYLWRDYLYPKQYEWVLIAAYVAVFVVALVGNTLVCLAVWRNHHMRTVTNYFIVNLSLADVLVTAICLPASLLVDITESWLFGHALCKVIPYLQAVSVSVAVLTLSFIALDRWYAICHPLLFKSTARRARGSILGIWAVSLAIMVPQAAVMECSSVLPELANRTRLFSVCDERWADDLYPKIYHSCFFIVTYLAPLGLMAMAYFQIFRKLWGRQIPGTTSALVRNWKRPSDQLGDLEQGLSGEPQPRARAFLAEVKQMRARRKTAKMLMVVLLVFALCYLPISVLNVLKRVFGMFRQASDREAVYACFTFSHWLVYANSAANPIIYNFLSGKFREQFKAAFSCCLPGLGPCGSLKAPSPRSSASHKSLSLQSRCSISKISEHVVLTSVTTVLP
Kind of assay: Intracellular calcium measurement (FLIPR Tetra), orexin receptor antagonistic activity, OX1. The assay is classed as cell-based. The conditions noted are these: CHO cells expressing human orexin-1 receptor, 3 nM orexin-A, conditions B. How it is done:
as §1, §2, §3, §4, §5, §6

The mark [3] stands for this setting: normalized (*) using IC50 of on-plate reference compound.

For `CCCN(CCc1ccc(OC)c(OC)c1)C(=O)c1nc(C)sc1-c1cccc(F)c1` [Example 109, 5-(3-Fluoro-phenyl)-2-methyl-thiazole-4-carboxylic acid [2-(3,4-dimethoxy-phenyl)-ethyl]-propyl-amide], the IC50 (as a rule, the concentration at which inhibition is half-maximal) in assay [1] came out at 0.006 µM; in assay [2], 0.479 µM.
As to `CCCN(CCc1ccc(OC)c(OC)c1)C(=O)c1nc(N)sc1-c1cccc(C)c1` [Example 110, 2-Amino-5-m-tolyl-thiazole-4-carboxylic acid [2-(3,4-dimethoxy-phenyl)-ethyl]-propyl-amide], the IC50 in assay [1] is 0.002 µM; in assay [2] it was 0.021 µM.
With `CCCN(CCc1ccc(OC)c(OC)c1)C(=O)c1nc(C)sc1-c1ccc(C)c(C)c1` [Example 111, 5-(3,4-Dimethyl-phenyl)-2-methyl-thiazole-4-carboxylic acid [2-(3,4-dimethoxy-phenyl)-ethyl]-propyl-amide], the IC50 in assay [1] amounted to 0.002 µM; in assay [2] it was 0.018 µM.
Regarding `COc1ccc(CCN(CC(C)C)C(=O)c2nc(N)sc2-c2cccc(C)c2)cc1OC` [Example 113, 2-Amino-5-m-tolyl-thiazole-4-carboxylic acid [2-(3,4-dimethoxy-phenyl)-ethyl]-isobutyl-amide], the IC50 in assay [1] was determined as 0.008 µM; in assay [2] it was 0.328 µM.
As to `COc1ccc(CCN(CC(F)(F)F)C(=O)c2nc(N)sc2-c2cccc(C)c2)cc1OC` [Example 119, 2-Amino-5-m-tolyl-thiazole-4-carboxylic acid [2-(3,4-dimethoxy-phenyl)-ethyl]-(2,2,2-trifluoro-ethyl)-amide], the IC50 in assay [1] came to 0.004 µM; in assay [2], 0.149 µM.
For `COc1ccc(CCN(CC(F)(F)F)C(=O)c2nc(C)sc2-c2ccc(C)c(C)c2)cc1OC` [Example 120, 5-(3,4-Dimethyl-phenyl)-2-methyl-thiazole-4-carboxylic acid [2-(3,4-dimethoxy-phenyl)-ethyl]-(2,2,2-trifluoro-ethyl)-amide], the values for the IC50 in assay [1] and in assay [2] were 0.006 µM and 0.119 µM, respectively.
For `COc1ccc(CCN(C(=O)c2nc(N)sc2-c2cccc(C)c2)C2CC2)cc1OC` [Example 122, 2-Amino-5-m-tolyl-thiazole-4-carboxylic acid cyclopropyl-[2-(3,4-dimethoxy-phenyl)-ethyl]-amide] the same measures were 0.002 µM and 0.015 µM.
Take `COc1ccc(CCN(C(=O)c2nc(C)sc2-c2ccc(C)c(C)c2)C2CC2)cc1OC` [Example 123, 5-(3,4-Dimethyl-phenyl)-2-methyl-thiazole-4-carboxylic acid cyclopropyl-[2-(3,4-dimethoxy-phenyl)-ethyl]-amide]: the figures for the IC50 in assay [1] and in assay [2] were 0.004 µM and 0.026 µM, respectively.
`COc1ccc(CCN(CCO)C(=O)c2nc(C)sc2-c2cccc(F)c2)cc1OC` [Example 124, 5-(3-Fluoro-phenyl)-2-methyl-thiazole-4-carboxylic acid [2-(3,4-dimethoxy-phenyl)-ethyl]-(2-hydroxy-ethyl)-amide]: the IC50 came to 0.082 µM in assay [1] and 1.47 µM in assay [2].
For `COc1ccc(CCN(CCO)C(=O)c2nc(C)sc2-c2ccc(C)c(C)c2)cc1OC` [Example 126, 5-(3,4-Dimethyl-phenyl)-2-methyl-thiazole-4-carboxylic acid [2-(3,4-dimethoxy-phenyl)-ethyl]-(2-hydroxy-ethyl)-amide] the same measures were 0.004 µM and 0.17 µM.
On to `COCCN(CCc1ccc(OC)c(OC)c1)C(=O)c1nc(C)sc1-c1cccc(F)c1` [Example 127, 5-(3-Fluoro-phenyl)-2-methyl-thiazole-4-carboxylic acid [2-(3,4-dimethoxy-phenyl)-ethyl]-(2-methoxy-ethyl)-amide], for which the figures for the IC50 in assay [1] and in assay [2] were 0.016 µM and 1.12 µM, respectively.
Taken in the same sequence, the figures for `COCCN(CCc1ccc(OC)c(OC)c1)C(=O)c1nc(N)sc1-c1cccc(C)c1` [Example 128, 2-Amino-5-m-tolyl-thiazole-4-carboxylic acid [2-(3,4-dimethoxy-phenyl)-ethyl]-(2-methoxy-ethyl)-amide] were 0.004 µM and 0.071 µM.
`COCCN(CCc1ccc(OC)c(OC)c1)C(=O)c1nc(C)sc1-c1ccc(C)c(C)c1` [Example 129, 5-(3,4-Dimethyl-phenyl)-2-methyl-thiazole-4-carboxylic acid [2-(3,4-dimethoxy-phenyl)-ethyl]-(2-methoxy-ethyl)-amide]: the IC50 in assay [1] came out at 0.005 µM; in assay [2], 0.04 µM.
As for `COc1ccc(CCN(CCN(C)C)C(=O)c2nc(N)sc2-c2cccc(C)c2)cc1OC` [Example 130, 2-Amino-5-m-tolyl-thiazole-4-carboxylic acid [2-(3,4-dimethoxy-phenyl)-ethyl]-(2-dimethylamino-ethyl)-amide], the values for the IC50 in assay [1] and in assay [2] were 0.279 µM and greater than 10 µM, respectively.
As for `COc1ccc(CCN(CC(N)=O)C(=O)c2nc(C)sc2-c2cccc(F)c2)cc1OC` [Example 131, 5-(3-Fluoro-phenyl)-2-methyl-thiazole-4-carboxylic acid carbamoylmethyl-[2-(3,4-dimethoxy-phenyl)-ethyl]-amide], the IC50 is 0.049 µM in assay [1] and greater than 10 µM in assay [2].
Regarding `COc1ccc(CCN(CC(=O)N(C)C)C(=O)c2nc(N)sc2-c2cccc(C)c2)cc1OC` [Example 135, 2-Amino-5-m-tolyl-thiazole-4-carboxylic acid [2-(3,4-dimethoxy-phenyl)-ethyl]-dimethylcarbamoylmethyl-amide], the IC50 in assay [1] was 0.145 µM; in assay [2], greater than 10 µM.
For `Cc1cccc(-c2sc(N)nc2C(=O)N(CCc2ccc3c(c2)OC(F)(F)O3)CC2CC2)c1` [Example 157, 2-Amino-5-m-tolyl-thiazole-4-carboxylic acid cyclopropylmethyl-[2-(2,2-difluoro-benzo[1,3]dioxol-5-yl)-ethyl]-amide], the IC50 in assay [1] is 0.745 µM; in assay [2] it was 8.51 µM.
As to `COc1ccc(CCN(CC2CC2)C(=O)c2nc(N)sc2-c2cccc(C)c2)cc1SC` [Example 161, 2-Amino-5-m-tolyl-thiazole-4-carboxylic acid cyclopropylmethyl-[2-(4-methoxy-3-methylsulfanyl-phenyl)-ethyl]-amide], the IC50 in assay [1] came to 0.006 µM; in assay [2] it was 0.01 µM.
Take `COc1ccc(CCN(CC2CC2)C(=O)c2nc(N)sc2-c2cccc(C)c2)cc1Br` [Example 163, 2-Amino-5-m-tolyl-thiazole-4-carboxylic acid [2-(3-bromo-4-methoxy-phenyl)-ethyl]-cyclopropylmethyl-amide]: the IC50 amounted to 0.018 µM in assay [1] and 0.081 µM in assay [2].
On to `COc1ccc(CCN(CC2CC2)C(=O)c2nc(N)sc2-c2cccc(C)c2)cc1OC(F)F` [Example 165, 2-Amino-5-m-tolyl-thiazole-4-carboxylic acid cyclopropylmethyl-[2-(3-difluoromethoxy-4-methoxy-phenyl)-ethyl]-amide], for which the IC50 turned out to be 0.018 µM in assay [1] (setting [3]) and 0.035 µM in assay [2] (setting [3]).

(Values after patent US20110212968A1, “PHENETHYLAMIDE DERIVATIVES AND THEIR HETEROCYCLIC ANALOGUES” (priority 2008, published 2011).)
